For one assay, the system named is A549-NF-κB-SEAP reporter cells. The assay can be described thus: Inhibition of NF-κB-induced inflammation: […] NINA Instant Assay, TNF-α stimulated SEAP reporter. Type of assay: cell-based. The following applies: % inhibition classes. An excerpt:
For the determination of anti-inflammatory activity of the compounds the […]® NINA Instant Assay from Cell Culture Service GmBH was used. This assay is based on […] recombinant A549-NF-κB-SEAP reporter cells preceded in 96-well flat bottom plates. As the transfected reportergen for SEAP (secreted embryonic alkaline phosphatase) is under transcriptional control of a NF-κB-responsive element, the expression of this reporter is activated upon stimulation with TNF-α. SEAP secretion into the culture supernatant can be detected by the chemiluminescent substrate CSPD®. Test compounds that inhibit the NF-κB activation show reduced SEAP activity and reduced luminescent readout.
Following 18 h of reactivation at 37° C., 5% CO2 and 90% relative humidity, the cells were incubated with 0.01 up to 100 μM of test compound for 4.5 h before stimulation with 2 ng/ml TNF-α. After stimulation with TNF-α for 22 h endogenous phosphatases were inactivated and CSPD® substrate was supplied for 40 min. SEAP activity then was quantified by measuring luminescence as relative light units (RLU) using a Tecan Ultra reader. Each data point was recorded in quadruplicates and EC50 values were calculated via fitting function and the Microsoft Excel Solver.
On to `O=C(NCCc1cccs1)N1CCC(c2nc(C(=O)N3CCN(c4cccc(C(F)(F)F)c4)CC3)cs2)CC1` [compound 77], for which the “Biological activity (inhibition in the NF-κB inflammation assay)” value was “+++ (“+++” stands for 90-100% inhibition)”.

For the compound `O=C(Cc1ccc(F)cc1)N1CCC(c2nc(C(=O)N3CCN(c4ccccc4)CC3)cs2)CC1` [compound 180], the “Biological activity (inhibition in the NF-κB inflammation assay)” value was “+ (“+” stands for 50-80% inhibition)”.

For `CN(C(=O)c1csc(C2CCN(C(=O)c3ccccc3OC(F)(F)F)CC2)n1)C(CN1CCOCC1)c1ccccc1` (stereo not shown) [compound 147], the “Biological activity (inhibition in the NF-κB inflammation assay)” value is given as “+ (“+” stands for 50-80% inhibition)”. The same measure, in the same setting: the value for `CC(=O)Nc1ccc(S(=O)(=O)N2CCC(c3nc(C(=O)N4CCN(c5cccc(C(F)(F)F)c5)CC4)cs3)CC2)cc1` [compound 207] was “+ (“+” stands for 50-80% inhibition)”; that for `O=C(Nc1cc(F)cc2c1OCCO2)N1CCC(c2nc(C(=O)N3CCN(c4cccc(C(F)(F)F)c4)CC3)cs2)CC1` [compound 135] was “+ (“+” stands for 50-80% inhibition)”. As to `O=C(c1csc(N2CCN(c3ccccc3)CC2)n1)N1CCN(c2cccc(C(F)(F)F)c2)CC1` [compound 68], the “Biological activity (inhibition in the NF-κB inflammation assay)” value is recorded as “+ (“+” stands for 50-80% inhibition)”. On the same count and under the same terms, the result for `N#Cc1ccc(C(=O)N2CCN(c3nc(C(=O)N4CCN(c5cccc(C(F)(F)F)c5)CC4)cs3)CC2)cc1` [compound 61] reads “+++ (“+++” stands for 90-100% inhibition)”; that for `CN(C)c1ncnc(NC(=O)c2csc(C3CCN(C(=O)c4ccccc4OC(F)(F)F)CC3)n2)n1` [compound 88], “+ (“+” stands for 50-80% inhibition)”. Same read-out and setting: the result for `O=C(Nc1nc(C(=O)N2CCN(c3ccc(Cl)c(Cl)c3)CC2)cs1)c1ccccc1OC(F)(F)F` [compound 41] reads “+++ (“+++” stands for 90-100% inhibition)”; that for `O=C(c1csc(C2CCN(C(=O)c3ccccc3OC(F)(F)F)CC2)n1)N1CCN(c2ncnc3nc[nH]c23)CC1` [compound 129], “+ (“+” stands for 50-80% inhibition)”; that for `O=C(Nc1nnc(Cc2ccccc2)[nH]1)c1csc(C2CCN(C(=O)c3ccccc3OC(F)(F)F)CC2)n1` [compound 84], “+ (“+” stands for 50-80% inhibition)”. On to `Cc1cc2nc(NC(=O)c3csc(C4CCN(C(=O)c5ccccc5OC(F)(F)F)CC4)n3)[nH]c2cc1C` [compound 133], for which the “Biological activity (inhibition in the NF-κB inflammation assay)” value is “+++ (“+++” stands for 90-100% inhibition)”.

Consider `O=C(c1csc(C2CCN(S(=O)(=O)c3ccccc3)CC2)n1)N1CCN(c2cccc(C(F)(F)F)c2)CC1` [compound 208], for which the “Biological activity (inhibition in the NF-κB inflammation assay)” value is “+ (“+” stands for 50-80% inhibition)”.

As for `O=C(Nc1ccccc1)N1CCC(c2nc(C(=O)N3CCN(c4cccc(C(F)(F)F)c4)CC3)cs2)CC1` [compound 73], the “Biological activity (inhibition in the NF-κB inflammation assay)” value is given as “++ (“++” means 80-90%)”. With `O=C(c1csc(C2CCN(C(=O)c3cccs3)CC2)n1)N1CCN(c2cccc(C(F)(F)F)c2)CC1` [compound 212], the “Biological activity (inhibition in the NF-κB inflammation assay)” value is listed as “+ (“+” stands for 50-80% inhibition)”.

On to `COC(=O)CC1c2ccccc2CCN1C(=O)c1csc(C2CCN(C(=O)Cc3ccc(F)cc3)CC2)n1` (stereo not shown) [compound 227], for which the “Biological activity (inhibition in the NF-κB inflammation assay)” value is reported as “+ (“+” stands for 50-80% inhibition)”. The same measure, in the same setting: the value for `O=C(c1csc(N2CCN(Cc3ccccc3)CC2)n1)N1CCN(c2cccc(C(F)(F)F)c2)CC1` [compound 72] was “+++ (“+++” stands for 90-100% inhibition)”; that for `O=C(c1csc(C2CCN(C(=O)c3ccccc3OC(F)(F)F)CC2)n1)N(CCO)Cc1ccccc1` [compound 148] was “++ (“++” means 80-90%)”; that for `O=C(O)C1=C(C(=O)N2CCC(c3nc(C(=O)N4CCN(c5cccc(C(F)(F)F)c5)CC4)cs3)CC2)CCCC1` [compound 190] was “+ (“+” stands for 50-80% inhibition)”. With `O=C(O)c1cccnc1C(=O)N1CCC(c2nc(C(=O)N3CCN(c4cccc(C(F)(F)F)c4)CC3)cs2)CC1` [compound 183], the “Biological activity (inhibition in the NF-κB inflammation assay)” value was “+ (“+” stands for 50-80% inhibition)”.

Turning to `COc1cc(NC(=O)N2CCC(c3nc(C(=O)N4CCN(c5cccc(C(F)(F)F)c5)CC4)cs3)CC2)cc(OC)c1OC` [compound 81], the “Biological activity (inhibition in the NF-κB inflammation assay)” value is “++ (“++” means 80-90%)”. In the case of `COc1ccc(N2CCC(c3nc(C(=O)N4CCN(c5cccc(C(F)(F)F)c5)CC4)cs3)CC2)c(OC)c1` [compound 153], the “Biological activity (inhibition in the NF-κB inflammation assay)” value is “+ (“+” stands for 50-80% inhibition)”. Consider `N#Cc1ccc(CN2CCC(c3nc(C(=O)N4CCN(c5cccc(C(F)(F)F)c5)CC4)cs3)CC2)cc1` [compound 166], for which the “Biological activity (inhibition in the NF-κB inflammation assay)” value is given as “+ (“+” stands for 50-80% inhibition)”. The same measure, in the same setting: the result for `O=C(Nc1cccc(F)c1)N1CCC(c2nc(C(=O)N3CCN(c4cccc(C(F)(F)F)c4)CC3)cs2)CC1` [compound 142] reads “++ (“++” means 80-90%)”; that for `O=C(CCC1CCCC1)NCC1CCN(c2nc(C(=O)N3CCN(c4cccc(C(F)(F)F)c4)CC3)cs2)CC1` [compound 100], “+ (“+” stands for 50-80% inhibition)”. The same measure, in the same setting: the result for `Cc1noc(C)c1S(=O)(=O)N1CCC(c2nc(C(=O)N3CCN(c4cccc(C(F)(F)F)c4)CC3)cs2)CC1` [compound 192] reads “+ (“+” stands for 50-80% inhibition)”; that for `O=C(CCC1CCCC1)N1CCN(c2nc(C(=O)N3CCN(c4cccc(C(F)(F)F)c4)CC3)cs2)CC1` [compound 37], “+++ (“+++” stands for 90-100% inhibition)”.

With `O=C(c1csc(C2CCN(Cc3ccc(Br)cc3)CC2)n1)N1CCN(c2cccc(C(F)(F)F)c2)CC1` [compound 174], the “Biological activity (inhibition in the NF-κB inflammation assay)” value is “+ (“+” stands for 50-80% inhibition)”. The same measure, in the same setting: the result for `CC(c1cc2ccccc2[nH]1)N(C)C(=O)c1csc(C2CCN(C(=O)c3ccccc3OC(F)(F)F)CC2)n1` (stereo not shown) [compound 145] reads “+ (“+” stands for 50-80% inhibition)”; that for `COC(=O)C1Cc2ccc(O)cc2CN1C(=O)c1csc(C2CCN(C(=O)Cc3ccc(F)cc3)CC2)n1` (stereo not shown) [compound 179], “+ (“+” stands for 50-80% inhibition)”. Same read-out and setting: the result for `N#Cc1ccc(C(=O)NCC2CCN(c3nc(C(=O)N4CCN(c5cccc(C(F)(F)F)c5)CC4)cs3)CC2)cc1` [compound 102] reads “+ (“+” stands for 50-80% inhibition)”; that for `CN1CCOc2cc(C(=O)N3CCC(c4nc(C(=O)N5CCN(c6cccc(C(F)(F)F)c6)CC5)cs4)CC3)ccc21` [compound 210], “++ (“++” means 80-90%)”; that for `O=C(Nc1nc(C(=O)N2CCN(c3cccc(C(F)(F)F)c3)CC2)cs1)c1ccc(C(F)(F)F)c(F)c1` [compound 34], “+++ (“+++” stands for 90-100% inhibition)”.

Still in this assay, the particulars now being: inhibition classes.
Take `CNc1ccc(Cl)cc1C1c2ccccc2CCN1C(=O)c1csc(C2CCN(C(=O)Cc3ccc(F)cc3)CC2)n1` (stereo not shown) [compound 235]: the “Biological activity (inhibition in the NF-κB inflammation assay)” value is reported as “+ (“+” stands for 50-80% inhibition)”.

The record behind these values is patent publication US8106048B2, “Heterocyclic NF-κB inhibitors” (4SC AG, priority 2004, dated 2012).
